Data published in patent publication US20220323443A1, “COMBINATION THERAPY FOR CANCER TREATMENT” (TAKEDA PHARMACEUTICAL COMPANY LIMITED, priority 2019, published 2022).

Legend:
[1] = system: COLO205 human colorectal adenocarcinoma xenografts; experiment: In vivo antitumor activity of Compound 1 and irradiation in nude mice; set-up: species or system mouse; settings: Compound 1 40 mg/kg orally once daily Day 1-14 combined with irradiation 3 Gy on Day 1, 2, 3, 8, 9, 10
Description: Human colorectal carcinoma cell line, COLO205 xenograft model was established by subcutaneous injection of cell suspension (5×10^6 cells/100 μl/site, in 1:1 mixture of Hanks' balanced salt and BD Matrigel™ Matrix (BD biosciences)). Mice with tumor size of approximately 200 mm^3 were randomly assigned to dose groups on the day before start date of dosing (Day 0). Compound 1 was suspended in 0.5 w/v % methylcellulose and administered orally to mice at a dose of 40 mg/kg once daily on Day 1-14. Mice in irradiation groups were irradiated at a dose of 3 Gy daily on Day 1, 2, 3, 8, 9 and 10 under pentobarbital anesthesia. Tumors on the flanks of the mice were irradiated using an X-ray irradiator (MBR-1520R-3, Hitachi Power Solutions Co., Ltd., Ibaraki) and non-tumor part of mice were shielded by lead plate. Tumor size was measured by caliper and tumor volume was estimated using the equation V=(LW^2)/2, where L and W are tumor length and width, respectively and reported in cubic millimeters (FIG. 3).

[2] = system: RNASEH2A knockout (KO) TK-6 cells and parental TK-6 cells; experiment: In vitro growth inhibition assay, Cell Titer-Glo, 72 hours; assay type: cell-based; settings: FIG. 9
Description: To determine further whether RNASEH2A is involved in the sensitization to compound 1, in vitro growth inhibition assay of compound 1 was carried out in RNASEH2A knockout (KO) TK-6 cells and its counterpart parental TK-6 cells. RNASEH2A KO TK-6 cells and its counterpart parental TK-6 cells were obtained from Kyoto University under a material transfer agreement. The cell lines were cultured in RPMI-1640 medium (FUJIFILM Wako Pure Chemical Corporation, Osaka, JAPAN) supplied with 10% Fetal Bovine Serum (CORNING Inc., NY, USA), sodium pyruvate (FUJIFILM Wako Pure Chemical Corporation, Osaka, JAPAN), and Penicillin-Streptomycin (FUJIFILM Wako Pure Chemical Corporation, Osaka, JAPAN). Stock solutions of compound 1 were prepared in dimethyl sulfoxide (DMSO), and stored at approximately −20 deg C.
Cell proliferation was measured by using Cell Titer-Glo Luminescent Cell Viability Assay (Promega, WI, USA.). The CellTiter-Glo Luminescent Cell Viability Assay is a homogeneous method of determining the number of viable cells in culture based on quantitation of the ATP present, which signals the presence of metabolically active cells. […] Luminescence of each well was measured by EnVision™ (PerkinElmer Inc., MA, USA). Taking as 100% the ATP content for the DMSO treatment control group, the ratio of the residual ATP content for each treatment group was determined. […]

## Cc1[nH]ncc1-c1cc2nc([C@@H]3CC4CCN3CC4)[nH]c(=O)c2s1 [Compound 1, 2-[(2S)-1-azabicyclo[2.2.2]oct-2-yl]-6-(3-methyl-1H-pyrazol-4-yl)thieno[3,2-d]pyrimidin-4(3H)-one]
[1]
  antitumor activity (tumor volume): strong antitumor activity and enhanced antitumor efficacy compared to either single treatment alone
[2]
  sensitivity (growth inhibition) of RNASEH2A KO TK-6 cells versus WT TK-6 cells: more sensitive
